Usually inhibition stands for the drop in the measured response relative to a control, in per cent. For orientation: IC50 means the midpoint of a concentration-inhibition curve.

SMILES strings stand for the structures. The source made the active and inactive calls. No cut-off for these calls is given here.

In ChEMBL document CHEMBL5252588, “Palladium-Catalyzed Synthesis, Acetylcholinesterase Inhibition, and Neuroprotective Activities of N-Aryl Galantamine Analogues” (J Nat Prod, 2023) one finds inhibition, Activity and IC50 data, which are given here for 25 compounds.

For data set [1], the target named is Cholinesterase (Equus caballus) (UniProt P81908). The experiment in a line: Inhibition of equine serum BChE using butyrylthiocholine iodide as substrate at 50 to 100 uM preincubated for 20 mins followed by substrate addition and measured after 20 mins by Ellman's method. As to conditions: dose 50-100 µM, time 40.0 min. Background: DTNB colorimetry detects thiols as they appear.

Data set [2] concerns SH-SY5Y. The experiment in a line: Cytotoxicity against human SH-SY5Y cells assessed as reduction in cell viability. It counts as toxicity, cell-based.
For data set [3], the target named is Acetylcholinesterase (Electrophorus electricus) (UniProt O42275). The experiment in a line: Inhibition of electric eel AChE using acetylthiocholine iodide as substrate at 50 to 100 uM preincubated with compounds for 20 mins followed by substrate addition and measured after 20 mins by Ellman's method relative to control. As to conditions: dose 50-100 µM, time 40.0 min.

For data set [4], the system named is SH-SY5Y. The experiment in a line: Neuroprotective activity against H2O2-induced injury in human SH-SY5Y cells assessed as […] in cell viability at 50 uM preincubated with compound for 24 hrs followed by H2O2-addition and measured after 4 hrs by MTT assay relative to control. As to conditions: time 28 hrs. It counts as functional. In general terms: Tetrazolium dyes change colour on reduction, which living cells bring about.

The target in data set [5] is Acetylcholinesterase (Electrophorus electricus) (UniProt O42275). The experiment in a line: Inhibition of electric eel AChE using acetylthiocholine iodide as substrate at 50 uM preincubated with compounds for 20 mins followed by substrate addition and measured after 20 mins by Ellman's method relative to control. Particulars: time 40.0 min.
A further data set concerns the target Acetylcholinesterase (Electrophorus electricus, UniProt O42275). Nature of the data set: Inhibition of electric eel AChE using acetylthiocholine iodide as substrate preincubated with compounds for 20 mins followed by substrate addition and measured after 20 mins by Ellman's method relative to control.
Data set [6] has as its system SH-SY5Y. Nature of the data set: Neuroprotective activity against H2O2-induced injury in human SH-SY5Y cells assessed as inhibition of H2O2-induced apoptosis at 50 uM preincubated with compound for 24 hrs followed by H2O2-addition and measured after 4 hrs by TUNEL staining based analysis. It counts as functional, cell-based. As to conditions: time 28.0 hrs.
In data set [7] the test system is SH-SY5Y. The experiment in a line: Neuroprotective activity against H2O2-induced injury in human SH-SY5Y cells assessed as decrease in cleaved caspase-3 at 50 uM preincubated with compound for 24 hrs followed by H2O2-addition and measured after 4 hrs by immunoblot analysis. It counts as functional, cell-based. Particulars: time 28.0 hrs. (In western blotting, separated proteins are transferred to a membrane and probed.)

For data set [8], the system named is SH-SY5Y. Nature of the data set: Neuroprotective activity against H2O2-induced injury in human SH-SY5Y cells assessed as decrease in caspase-3 protein expression at 50 uM preincubated with compound for 24 hrs followed by H2O2-addition and measured after 4 hrs by immunoblot analysis. It counts as functional, cell-based. Particulars: time 28.0 hrs.
The subject of data set [9] is SH-SY5Y. The experiment in a line: Neuroprotective activity against H2O2-induced injury in human SH-SY5Y cells assessed as increase in Bcl-2 protein expression at 50 uM preincubated with compound for 24 hrs followed by H2O2-addition and measured after 4 hrs by immunoblot analysis. It counts as functional, cell-based. As to conditions: time 28.0 hrs.

Sequence of Cholinesterase (Equus caballus) (P81908 whole entry): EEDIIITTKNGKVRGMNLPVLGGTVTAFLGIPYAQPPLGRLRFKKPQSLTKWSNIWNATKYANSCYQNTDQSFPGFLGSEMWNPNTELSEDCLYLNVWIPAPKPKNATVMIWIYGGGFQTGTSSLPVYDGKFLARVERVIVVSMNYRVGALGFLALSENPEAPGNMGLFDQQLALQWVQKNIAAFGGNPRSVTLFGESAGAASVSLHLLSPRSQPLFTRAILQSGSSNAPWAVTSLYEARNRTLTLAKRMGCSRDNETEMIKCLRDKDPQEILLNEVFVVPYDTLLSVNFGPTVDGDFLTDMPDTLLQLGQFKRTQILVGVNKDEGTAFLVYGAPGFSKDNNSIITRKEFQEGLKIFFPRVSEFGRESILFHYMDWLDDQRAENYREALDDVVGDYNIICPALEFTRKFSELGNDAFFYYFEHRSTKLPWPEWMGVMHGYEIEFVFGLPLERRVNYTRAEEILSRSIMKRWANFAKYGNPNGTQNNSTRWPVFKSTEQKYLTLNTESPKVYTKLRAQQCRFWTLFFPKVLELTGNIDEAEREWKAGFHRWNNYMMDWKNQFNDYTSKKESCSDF
Sequence of Acetylcholinesterase (Electrophorus electricus) (O42275 24-633 limits assumed): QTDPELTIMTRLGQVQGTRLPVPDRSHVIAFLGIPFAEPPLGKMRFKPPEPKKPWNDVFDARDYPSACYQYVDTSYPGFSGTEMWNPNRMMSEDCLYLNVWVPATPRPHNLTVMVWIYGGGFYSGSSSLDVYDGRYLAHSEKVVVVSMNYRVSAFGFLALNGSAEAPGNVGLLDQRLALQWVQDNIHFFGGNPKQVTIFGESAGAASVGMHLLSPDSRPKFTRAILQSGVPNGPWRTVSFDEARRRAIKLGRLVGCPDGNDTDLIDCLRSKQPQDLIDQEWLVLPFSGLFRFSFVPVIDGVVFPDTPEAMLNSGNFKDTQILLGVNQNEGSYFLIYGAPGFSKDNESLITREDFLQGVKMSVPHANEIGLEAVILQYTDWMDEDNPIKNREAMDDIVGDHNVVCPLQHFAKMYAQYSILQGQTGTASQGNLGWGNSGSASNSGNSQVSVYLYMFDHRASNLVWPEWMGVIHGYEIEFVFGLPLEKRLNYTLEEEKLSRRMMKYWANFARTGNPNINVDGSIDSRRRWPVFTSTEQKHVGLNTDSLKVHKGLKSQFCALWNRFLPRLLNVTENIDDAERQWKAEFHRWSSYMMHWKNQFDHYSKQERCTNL
Sequence of Acetylcholinesterase (O42275 whole entry): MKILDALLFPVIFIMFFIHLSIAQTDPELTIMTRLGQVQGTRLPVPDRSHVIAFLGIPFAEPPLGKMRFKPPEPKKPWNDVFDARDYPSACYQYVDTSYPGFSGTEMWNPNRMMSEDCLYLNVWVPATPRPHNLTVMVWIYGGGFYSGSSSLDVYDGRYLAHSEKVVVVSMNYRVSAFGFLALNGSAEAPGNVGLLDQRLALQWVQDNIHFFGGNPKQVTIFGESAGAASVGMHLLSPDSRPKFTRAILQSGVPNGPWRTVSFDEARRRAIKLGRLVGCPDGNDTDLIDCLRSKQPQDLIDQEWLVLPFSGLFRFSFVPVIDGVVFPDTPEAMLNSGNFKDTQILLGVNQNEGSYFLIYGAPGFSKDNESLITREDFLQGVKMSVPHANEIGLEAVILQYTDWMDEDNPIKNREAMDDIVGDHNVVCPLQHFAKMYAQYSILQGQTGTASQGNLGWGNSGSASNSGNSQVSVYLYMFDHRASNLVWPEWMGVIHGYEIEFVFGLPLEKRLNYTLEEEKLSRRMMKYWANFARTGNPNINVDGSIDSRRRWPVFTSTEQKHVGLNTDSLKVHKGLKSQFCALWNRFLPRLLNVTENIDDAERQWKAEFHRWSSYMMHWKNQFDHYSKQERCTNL

On to `COc1ccc2c3c1O[C@H]1C[C@@H](O)C=C[C@@]31CCN(c1cc(C(F)(F)F)cc(C(F)(F)F)c1)C2`, for which the inhibition result in data set [1] was “inactive”. Moreover, the Activity entry in the data set on SH-SY5Y [2] was “Toxic”. Besides, in [3], the inhibition is less than 50%.
For `CCCCc1ccc(N2CC[C@@]34C=C[C@H](O)C[C@@H]3Oc3c(OC)ccc(c34)C2)cc1` the same measures were “inactive”, “Toxic” and less than 50%.
With `COc1ccc2c3c1O[C@H]1C[C@@H](O)C=C[C@@]31CCN(c1cccc(C)n1)C2`, the Activity in the data set with SH-SY5Y [4] was determined as 55%. For the same compound, in data set [5], the inhibition is greater than 50%. In data set [1], the inhibition result was “inactive”. Besides, the IC50 on Acetylcholinesterase came out at 17 µM.
For `COc1ccc2c3c1O[C@H]1C[C@@H](O)C=C[C@@]31CCN(c1ccc(C)cc1)C2`, the inhibition entry in data set [1] is “inactive”. Moreover, the Activity result with SH-SY5Y [2] was “Toxic”. In data set [3], the inhibition was less than 50%.
Turning to `COc1ccc2c3c1O[C@H]1C[C@@H](O)C=C[C@@]31CCN(c1cc(C)ccn1)C2`, the Activity with SH-SY5Y [4] is reported as 41%. In data set [1], the inhibition entry was “inactive”.
Take `COc1ccc2c3c1O[C@H]1C[C@@H](O)C=C[C@@]31CCN(c1ccc3ncccc3c1)C2`: in the data set on SH-SY5Y [4], the Activity was found to be 56%. For the same compound, the inhibition entry in data set [1] is “inactive”. Further, the inhibition in data set [3] is less than 50%.
`COc1ccc2c3c1O[C@H]1C[C@@H](O)C=C[C@@]31CCN(c1ccc(C(F)(F)F)nc1)C2`: the Activity in the data set with SH-SY5Y [4] stood at 63%. The inhibition entry in data set [1] is “inactive”.
With `COc1cccnc1N1CC[C@@]23C=C[C@H](O)C[C@@H]2Oc2c(OC)ccc(c23)C1`, in the data set on SH-SY5Y [4], the Activity was determined as 40%. Moreover, the inhibition in data set [5] is greater than 50%. In addition, the inhibition entry in [1] is “inactive”. Further, at Acetylcholinesterase, the IC50 was found to be 27 µM.
As to `COc1ccc2c3c1O[C@H]1C[C@@H](O)C=C[C@@]31CCN(c1ccccn1)C2`, the Activity with SH-SY5Y [4] was determined as 59%. The inhibition in [5] was greater than 50%. Besides, the inhibition result in data set [1] is “inactive”. Besides, at Acetylcholinesterase, the IC50 is 3.6 µM.
Turning to `COc1ccc2c3c1O[C@H]1C[C@@H](O)C=C[C@@]31CCN(c1ccc(F)cc1)C2`, in the data set on SH-SY5Y [4], the Activity turned out to be 39%. Moreover, in data set [1], the inhibition result is “inactive”. Besides, in data set [3], the inhibition was less than 50%.
For `COc1ccc2c3c1O[C@H]1C[C@@H](O)C=C[C@@]31CCN(c1cccc(C(F)(F)F)c1)C2` the same measures were 53%, “inactive” and less than 50%.
Regarding `COc1ccnc(N2CC[C@@]34C=C[C@H](O)C[C@@H]3Oc3c(OC)ccc(c34)C2)c1`, the outcome in the data set on SH-SY5Y [6], in the data set with SH-SY5Y [7] and with SH-SY5Y [9] was Active. Moreover, the result in the data set with SH-SY5Y [8] was inactive. For the same compound, the Activity in the data set with SH-SY5Y [4] came out at 70%. Moreover, in data set [5], the inhibition was greater than 50%. In [1], the inhibition result is “inactive”. On Acetylcholinesterase, the IC50 is 0.19 µM.
For the compound `COc1ccc2c3c1O[C@H]1C[C@@H](O)C=C[C@@]31CCN(c1ncccc1F)C2`, the inhibition result in data set [1] was “inactive”. For the same compound, in the data set with SH-SY5Y [2], the Activity entry was “Toxic”.
Consider `COc1cccc(N2CC[C@@]34C=C[C@H](O)C[C@@H]3Oc3c(OC)ccc(c34)C2)n1`, for which the Activity in the data set on SH-SY5Y [4] is on record as 66%. In addition, the inhibition entry in [1] is “inactive”.
The matching figures for `CCOc1ccc(N2CC[C@@]34C=C[C@H](O)C[C@@H]3Oc3c(OC)ccc(c34)C2)nc1`: 41% and “inactive”.
Regarding `COc1ccc2c3c1O[C@H]1C[C@@H](O)C=C[C@@]31CCN(c1ccc(OC(C)C)nc1)C2`, the Activity in the data set with SH-SY5Y [4] is on record as 42%. Moreover, the inhibition result in data set [1] is “inactive”.
Turning to `COc1ccc2c3c1O[C@H]1C[C@@H](O)C=C[C@@]31CCN(c1ccc(C(C)(C)C)cc1)C2`, the inhibition entry in [1] is “inactive”. Besides, the Activity entry with SH-SY5Y [2] is “Toxic”. Besides, the inhibition in data set [3] was less than 50%.
Regarding `COc1ccc2c3c1O[C@H]1C[C@@H](O)C=C[C@@]31CCN(C)C2` [GALANTAMINE], the Activity with SH-SY5Y [4] came out at 44%.
Turning to `CCc1ccc(-c2ccc(N3CC[C@@]45C=C[C@H](O)C[C@@H]4Oc4c(OC)ccc(c45)C3)cc2)cc1`, the inhibition entry in data set [1] is “inactive”. For the same compound, in the data set with SH-SY5Y [2], the Activity entry was “Toxic”. Also, the inhibition in [3] is less than 50%.
For `COc1ccc2c3c1O[C@H]1C[C@@H](O)C=C[C@@]31CCN(c1ncccc1C)C2`, the Activity in the data set with SH-SY5Y [4] turned out to be 37%. Moreover, in data set [5], the inhibition is greater than 50%. In data set [1], the inhibition entry is “inactive”. In addition, the IC50 at Acetylcholinesterase worked out at 1.7 µM.
With `COc1cccc(N2CC[C@@]34C=C[C@H](O)C[C@@H]3Oc3c(OC)ccc(c34)C2)c1`, in the data set on SH-SY5Y [4], the Activity came out at 40%. Further, the inhibition entry in [1] was “inactive”. In addition, the inhibition in [3] is less than 50%.
As for `COc1ccc(N2CC[C@@]34C=C[C@H](O)C[C@@H]3Oc3c(OC)ccc(c34)C2)cc1`, the Activity with SH-SY5Y [4] was determined as 37%. The inhibition entry in data set [1] was “inactive”. The inhibition in data set [3] was less than 50%.
With `COc1ccc2c3c1O[C@H]1C[C@@H](O)C=C[C@@]31CCN(c1ccc(-c3ccccn3)cc1)C2`, the Activity is listed as 38% in the data set on SH-SY5Y [4] and “Toxic” with SH-SY5Y [2]. Also, the inhibition result in data set [1] is “inactive”. The inhibition in data set [3] was less than 50%.
In the case of `COc1ccc2c3c1O[C@H]1C[C@@H](O)C=C[C@@]31CCN(c1ncccn1)C2`, the Activity in the data set on SH-SY5Y [4] is on record as 60%. For the same compound, the inhibition result in data set [1] was “inactive”.
As for `COc1ccc2c3c1O[C@H]1C[C@@H](O)C=C[C@@]31CCN(c1ccc3c(c1)OCO3)C2`, the Activity in the data set on SH-SY5Y [4] turned out to be 39%. In addition, the inhibition entry in [1] was “inactive”. Further, in data set [3], the inhibition is less than 50%.
